Source: patent US7858597B2, “Preparation of formulations of angiotensin II AT1 receptors antagonists for the treatment of arterial hypertension, other cardiovascular illnesses and its complications” (Universidade Federal De Mimas Gerais - UFMG, priority 2001, dated 2010)
Read-outs that look alike come from different tables or passages of the source.

What was measured:
[1] = cited from earlier work
[2] = cited from earlier work; remark: listed apart in the source
[3] = molecular target: T1, ANGIOTENSIN II AT1 receptor (Homo sapiens, UniProt P30556); conditions: cited from earlier work
T1 sequence (P30556 1-359): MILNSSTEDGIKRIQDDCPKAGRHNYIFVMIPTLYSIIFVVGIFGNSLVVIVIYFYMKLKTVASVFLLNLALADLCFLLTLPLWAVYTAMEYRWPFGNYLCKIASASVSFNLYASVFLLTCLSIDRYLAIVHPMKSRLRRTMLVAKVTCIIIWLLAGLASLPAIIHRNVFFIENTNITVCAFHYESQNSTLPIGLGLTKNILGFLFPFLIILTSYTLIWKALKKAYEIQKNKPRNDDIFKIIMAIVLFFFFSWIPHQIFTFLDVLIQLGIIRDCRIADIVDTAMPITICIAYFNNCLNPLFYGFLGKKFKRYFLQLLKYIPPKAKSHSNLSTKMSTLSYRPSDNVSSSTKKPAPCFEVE

[4] = cited from earlier work; remark: listed apart in the source
[5] = system: pressor effect of Ang II; assay: Pressor effect of Ang II in rats after subcutaneous losartan or losartan incorporated in biodegradable polymer (telemetric recording of arterial pressure); assay type: in vivo; conditions: losartan 0.7 mg
Description: Male rats weighing (330-350 g) instrumented for telemetric recording of arterial pressure (Data Science System) were anesthetized and submitted to the implantation of […] femoral vein. […] Injections of Ang II were made after 2, 8 and 24 hours and then at intervals of 24 hours, for 15 days.

[6] = system: pressor effect of Ang II; assay: Pressor effect of Ang II in rats after losartan or losartan included in cyclodextrin (gavage); assay type: in vivo; conditions: losartan 0.2 mg/Kg, tested 2, 6, 24 and 48 hours after
[7] = cited from earlier work; remark: listed apart in the source

CCOC(=O)[C@H](C)C[C@@H](C)C(=O)N1c2ccccc2C[C@H]1C(=O)O [Pentopril]
stability in the human plasma [1]: highly stable

CCCCC1=NC2(CCCC2)C(=O)N1Cc1ccc(-c2ccccc2-c2nnn[nH]2)cc1 [Irbersartan]
excreted by the bile ([2]; in vivo): 80%

CCCCc1nc(Cl)c(CC(=O)[O-])n1Cc1ccccc1[N+](=O)[O-].[Na+] [S-8308]
binding / affinity for the Ang II AT1 receptor [3]: weak binding

CCOc1nc2cccc(C(=O)O)c2n1Cc1ccc(-c2ccccc2-c2nnn[nH]2)cc1 [Candesartan]
bioavailability ([2]; in vivo): about 40%
half-life ([2]; in vivo): 9 h

CCCc1nc2c(C)cc(-c3nc4ccccc4n3C)cc2n1Cc1ccc(-c2ccccc2C(=O)O)cc1 [Telmisartan]
bioavailability ([2]; in vivo): 45%
excreted by the bile ([2]; in vivo): 97%

CCCCc1nc(Cl)c(CC(=O)[O-])n1Cc1ccccc1Cl.[Na+] [S-8307]
binding / affinity for the Ang II AT1 receptor [3]: weak binding

CCCCc1ncc(/C=C(\Cc2cccs2)C(=O)O)n1Cc1ccc(C(=O)O)cc1 [Eprosartan, (E)-a-[[2-butyl-1-[(4-carboxyphenyl)metyl]-1H-imidazol-5-yl]methylene]-2-thiofenepropanoic acid]
binding / affinity for the Ang II AT1 receptor [3]: high affinity
eliminated through the feces ([2]; in vivo): Approximately 90%
time to peak of maximum concentration ([2]; in vivo): about 2 hours

CCCCC(=O)N(Cc1ccc(-c2ccccc2-c2nnn[nH]2)cc1)[C@H](C(=O)O)C(C)C [Valsartan, 1-oxopentyl-N′[[2′-(1H-tetrazole-5-yl)[1,1′-biphenyl]-4-yl]methyl]-L-vaniline]
half-life ([2]; in vivo): 9 h
time to peak of maximum concentration ([2]; in vivo): about 2 hours

CC[C@H](C)[C@H](NC(=O)[C@H](CCC(N)=O)NC(=O)[C@@H]1CCCN1C(=O)[C@H](CCCNC(=N)N)NC(=O)[C@@H]1CCCN1C(=O)[C@H](Cc1c[nH]c2ccccc12)NC(=O)[C@@H]1CCC(=O)N1)C(=O)N1CCC[C@H]1C(=O)N1CCC[C@H]1C(=O)O [teprotide]
anti-hypertensive action ([4]; intravenous route): has an anti-hypertensive action
anti-hypertensive action ([4]; oral route): inactive

CCCCc1nc(Cl)c(CO)n1Cc1ccc(-c2ccccc2-c2nn[nH]n2)cc1 [Losartan]
duration of blockade of the Ang II effect [5]: about 8 hours
half-life ([2]; in vivo): about two
excreted as EXP-3174 ([2]; oral dose): 8%
excreted with the losartan ([2]; oral dose): 5%
duration of blockade of the pressor effect of Ang II [6]: about 8 hours
solubility ([7]; in alcohol): soluble
solubility ([7]; in common organic solvents, such as acetonitrile and methyl-ethyl-cetone): slightly soluble
solubility ([7]; in water): soluble
